17 compounds from PubChem BioAssay (NCI) can be followed below.

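How tested: cells in 96-well plates exposed to compound for 48 hours at five concentrations. Abbreviation: GI50, concentration required for 50% inhibition of growth. Definition used: TGI = concentration required for complete inhibition of growth.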

Assay in all cases: growth of human tumour cells (NCI), 48 h
Test [1] deals with LOX IMVI melanoma.
In test [2] the test system is HCC-2998 colon.
Test [3] deals with SN12C renal.
Test [4] has as its system NCI-H522 lung.
Test [5] deals with MALME-3M melanoma.
For test [6], the system named is UACC-257 melanoma.
The subject of test [7] is RXF 393 renal.
Test [8] deals with SK-MEL-2 melanoma.
For test [9], the system named is HOP-92 NSCLC.
Test [10] has as its system HCT-116 colon.

As to `CC1=C(C(=O)Nc2ccc([N+](=O)[O-])cc2)C(c2ccco2)C(C(=O)Nc2ccc([N+](=O)[O-])cc2)=C(C)N1`, the TGI in [1] was above 100 µM; in test [2] it was 47.9 µM; in test [3] it was above 100 µM; in test [4], 64.3 µM; in test [5], 55.1 µM; in test [6], 98.5 µM. Besides, the TGI amounted to 60.3 µM in test [7], 28 µM in test [8] and 56.8 µM in test [9].
`Cc1cc(Br)cc(C)c1NC(=O)C(=O)CC(=O)c1sc(-n2nc(-c3ccccc3)cc2-c2ccccc2)nc1C`: the TGI in test [1], in [2], in test [3], in test [4], in test [5] and in [6] was above 100 µM throughout. Moreover, the TGI in test [10], in test [7] and in test [9] was above 100 µM in each case.
For `Cn1ncc2cc3c(Nc4ccc(Cl)cc4)cccc3nc21`, the TGI in test [1] was found to be 41.4 µM; in test [2], 54.5 µM; in [3], 70.8 µM; in test [5], 56.3 µM; in test [6], 38.3 µM; in [7] it was 37.6 µM. Also, the TGI was 51.8 µM in [8] and 47.7 µM in test [9].
With `COc1ccc(N(C)c2nc(C)nc3ccccc23)cc1`, the GI50 in test [1] is below 0.01 µM; in test [2], below 0.01 µM; in [3], below 0.01 µM; in [4], below 0.01 µM; in [6], 11.3 µM; in [10], below 0.01 µM. Also, the GI50 in test [7] and in test [9] was below 0.01 µM each time. In addition, the TGI in test [1] is above 51.4 µM; in test [2], 4.31 µM; in [3], above 100 µM; in test [4] it was below 0.01 µM; in test [5], 39.5 µM; in test [6] it was 27 µM. In addition, the values for the TGI in test [10], in [7] and in [9] were above 36 µM, above 100 µM and 4.94 µM, respectively.
Turning to `COc1ccc(/C(=C/c2cc(OC)c(OC)c(OC)c2)[N+](=O)[O-])cc1`, the GI50 in [1] is 1.62 µM; in test [2], 1.81 µM; in [3], 1.6 µM; in test [4], 1.95 µM; in test [5] it was 1.68 µM; in test [6], 1.67 µM. Besides, the GI50 in test [7] was 1.73 µM; in test [8], 2.04 µM; in test [9], 1.44 µM. Besides, the TGI in test [1] turned out to be 3.07 µM; in [2], 3.28 µM; in test [3] it was 3.24 µM; in [4] it was 3.62 µM; in test [5], 3.71 µM; in test [6] it was 3.48 µM. For the same compound, the TGI came to 3.32 µM in test [7], 4.92 µM in test [8] and 3.09 µM in test [9].
On to `O=S(=O)(c1ccc(NC(=S)N/N=C/c2ccccc2O)cc1)N1CCCCC1`, for which the TGI in [1] is 0.109 µM; in [3], 3.92 µM; in test [4], above 57.5 µM; in test [5], 1.43 µM; in [6], 14.5 µM; in [10], 7 µM. Also, the TGI in test [7] was above 100 µM; in test [8] it was above 100 µM; in [9], 66.1 µM.
As for `O=[N+]([O-])c1ccc(N/N=C\c2cc(Cl)ccc2O)nc1`, the GI50 in test [1] is 0.457 µM; in test [3], 2.99 µM; in test [5], 2.68 µM; in test [6] it was 1.82 µM; in [10] it was 1.2 µM; in test [7], 5.66 µM. Also, the GI50 in test [8] was 3.24 µM; in test [9] it was 6.68 µM. Further, the TGI is 8.47 µM in test [1]; above 100 µM in test [3]; 20.5 µM in test [5]; 7.38 µM in test [6]; 12.5 µM in [10]; 38.8 µM in [7]. In addition, the TGI in test [8] is 29.4 µM; in test [9], above 100 µM.
As for `Cn1nc(-c2ccccc2NC(=O)C(F)(F)F)c(=O)n(C)c1=S`, the TGI in [1] was above 100 µM; in [2], above 100 µM; in test [3], above 100 µM; in test [4], 49.2 µM; in test [5], above 100 µM; in test [10], above 100 µM. The TGI in [7] was above 100 µM; in [8] it was 60.7 µM; in test [9] it was 50.7 µM.
With `O=C1CC(=O)N(C2CCCCC2)C(=O)N1c1ccccc1S(=O)(=O)Oc1ccccc1`, the TGI is 7.69 µM in test [1]; above 100 µM in test [2]; above 100 µM in test [3]; above 100 µM in [6]; above 100 µM in [10]; above 100 µM in test [7]. The TGI in test [8] and in test [9] was above 100 µM in each case.
Turning to `C/C(=N\NC(=S)Nc1ccc(C(=O)O)cc1)c1ccccn1`, the TGI in test [1] is above 100 µM; in test [2] it was 32.7 µM; in [3], 35.8 µM; in test [5], 35.1 µM; in test [6], 62.1 µM; in test [10], 51.4 µM. The figures for the TGI in test [7], in test [8] and in test [9] were 74.4 µM, 35.4 µM and above 100 µM, respectively.
`O=C(CCCc1c[nH]c2ccccc12)NC1CC(=O)c2c(Br)sc(Br)c21` (stereo not drawn): the GI50 was 1.9 µM in [1]; 2.06 µM in test [2]; 17.3 µM in test [3]; 21.1 µM in [4]; 16.4 µM in test [5]; 19.2 µM in [6]. The GI50 was 14.7 µM in test [7], 30.5 µM in [8] and 17.9 µM in [9]. Moreover, the TGI in [1] was determined as 3.75 µM; in test [2] it was 4.03 µM; in test [3], 33 µM; in [4] it was 52.2 µM; in test [5], 48 µM; in test [6] it was 48.1 µM. In addition, the TGI in test [7] was 80.8 µM; in test [8], above 100 µM; in test [9], 40 µM.
Consider `Cc1cc(C)nc(NS(=O)(=O)c2ccc(Nc3c4ccccc4nc4c(C(=O)Nc5ccc(S(N)(=O)=O)cc5)cccc34)cc2)n1`, for which the TGI in test [1], in test [3], in test [4], in [5], in [6] and in test [10] was above 100 µM in each case. For the same compound, the TGI in [7], in [8] and in [9] was above 100 µM throughout.
With `COc1cccc(NC(=O)c2sc3nc4c(cc3c2N)CCCC4)c1`, the GI50 is 0.729 µM in test [1]; 1.6 µM in [2]; 3.98 µM in [3]; 0.806 µM in [4]; 0.727 µM in test [6]; 0.475 µM in test [10]. The GI50 in test [7] is 0.365 µM; in test [8], 0.69 µM; in [9], 0.598 µM. The TGI in [1], in test [2], in [3], in test [4], in [6] and in test [10] was above 100 µM in each case. The TGI in [7] is 3.34 µM; in test [8], 18.6 µM; in test [9], 24.7 µM.
On to `Cc1ccc(S(=O)(=O)N/N=C/C(Br)=C(/Br)C(=O)O)cc1`, for which the TGI is 11 µM in test [1]; 15.7 µM in test [2]; 25.6 µM in test [3]; 14.3 µM in test [5]; 26.8 µM in test [6]; 5.17 µM in test [7]. The TGI in test [8] was 35.1 µM; in [9] it was 39.6 µM.
For the compound `CC12OC(C(=O)C13CC3)C1C(=O)c3ccccc3C(=O)C12` (stereo not drawn), the GI50 in test [2] is 36.3 µM; in [4], 53.3 µM; in test [5], 27.9 µM; in [6], 27.7 µM; in test [10], 34 µM; in test [7], 10 µM. Besides, the values for the GI50 in test [8] and in test [9] were 47.1 µM and 21.8 µM, respectively. Besides, the TGI in test [2] was above 100 µM; in test [4], above 100 µM; in test [5], 87.1 µM; in test [6], 68.8 µM; in [10] it was above 100 µM; in test [7], 24.9 µM. Moreover, the TGI in test [8] was above 100 µM; in test [9], 60.7 µM.
`NC(N)=NC(CC(=O)O)c1ccccc1` (stereo not drawn): the TGI in test [1], in test [3], in test [4], in test [5], in [6] and in test [10] was above 100 µM each time. In addition, the TGI in test [7], in test [8] and in test [9] was above 100 µM throughout.
On to `CCCCCCCCCCCCc1ccc(C(=O)/C=C/C(=O)O)cc1`, for which the GI50 in test [1] is 1.45 µM; in test [2], 5.45 µM; in test [3] it was 1.83 µM; in [4] it was 1.98 µM; in [5], 1.82 µM; in [6], 3.79 µM. Besides, the GI50 in test [10] was 1.54 µM; in [7], 1.76 µM; in [9], 1.95 µM. Moreover, the TGI in test [1] is 2.81 µM; in test [2] it was 17.7 µM; in [3] it was 4.14 µM; in test [4], 4.73 µM; in [5], 3.6 µM; in test [6] it was 15.2 µM. Also, the TGI in test [10] worked out at 3.39 µM; in test [7] it was 3.34 µM; in test [9] it was 5.78 µM.
